For 92 compounds, ED50 results are on record in ChEMBL document CHEMBL1132316 (J Med Chem, 1999).

Common to all, as to type: functional
Conditions in all cases: ip

Experiment [1] relates to Mus musculus. Briefly: Protective effect against mortality induced by hypobaric hypoxia in mice by intraperitoneal (i.p.) administration.
The next experiment concerns Rattus norvegicus. Kind of experiment: Tested for the protection against glutamic acid-evoked convulsions in rats by intraperitoneal administration.
For experiment [2], the system named is Mus musculus. Briefly: Protective effect against mortality induced by hypobaric hypoxia in mice by intraperitoneal (i.p.) administration; Range 2.5-10.

The structures appear in SMILES notation.

In the case of `N=c1sc2cc(OC(F)(F)F)ccc2n1CCN1CCN(c2ccccc2)CC1`, the results for the ED50 in the experiment with Mus musculus [1] and with Rattus norvegicus were 5.5 mg/kg and 3.5 mg/kg, respectively. For the compound `Cn1c(=N)sc2cc(OC(F)(F)F)ccc21`, the 50% effect level with Rattus norvegicus (ED50) was put at a dose of 5 mg/kg. On the same count and under the same terms, next, `CCSCCn1/c(=N/C)sc2cc(OC(F)(F)F)ccc21`: 3.7 mg/kg. On the same count and under the same terms, next, `CN(CCc1ccccc1)CCn1c(=N)sc2cc(OC(F)(F)F)ccc21`: 5 mg/kg. In the case of `N=c1sc2cc(OC(F)(F)F)ccc2n1CCO`, in the experiment with Rattus norvegicus, the ED50 – broadly, the midpoint of the dose-response relation – was 8 mg/kg. In turn, `N=c1sc2cc(OC(F)(F)F)ccc2n1CCc1ccccc1` gave an ED50 in the experiment with Rattus norvegicus above 10 mg/kg. For `Nc1nc2ccc([N+](=O)[O-])cc2s1`, the ED50 in the experiment on Rattus norvegicus is above 10 mg/kg. Same read-out and setting: next, `C[S+]([O-])CCCn1c(=N)sc2cc(OC(F)(F)F)ccc21` (configuration not stated): 2.3 mg/kg; `N=c1sc2cc(OC(F)(F)F)ccc2n1Cc1ccccc1`: above 10 mg/kg.

As to `N=c1sc2cc(OC(F)(F)F)ccc2n1CCCN1CCN(c2ccccc2)CC1`, the ED50 is above 10 mg/kg in the experiment with Mus musculus [1] and 10 mg/kg in the experiment on Rattus norvegicus. In the experiment with Rattus norvegicus, `Nc1nc2cccc(OC(F)(F)F)c2s1` gave an ED50 above 10 mg/kg. Still for that read-out and setting: next, `N#CCn1c(=N)sc2cc(OC(F)(F)F)ccc21`: 3.5 mg/kg.

In the experiment with Rattus norvegicus, `CCc1ccc2nc(N)sc2c1` returned an ED50 of 7 mg/kg. Still for that read-out and setting: next, `Nc1nc2ccc(OC(F)(F)C(F)F)cc2s1`: 8.5 mg/kg. On the same count and under the same terms, the same measure for `CCCSCCn1c(=N)sc2cc(OC(F)(F)F)ccc21`: 2.4 mg/kg.

In the experiment with Rattus norvegicus, `N=c1sc2cc(OC(F)(F)F)ccc2n1CC[S+]([O-])c1ccccc1` (configuration not stated) showed an ED50 of 4.2 mg/kg.

In the experiment on Rattus norvegicus, `Nc1nc2ccc(OCC(F)(F)C(F)(F)F)cc2s1` registered an ED50 of 7.5 mg/kg.

Regarding `CCCCc1ccc2c(c1)sc(=N)n2CC[S+]([O-])CC` (configuration not stated), in the experiment with Rattus norvegicus, the ED50 was above 10 mg/kg. Still for that read-out and setting: the same measure for `CCC(C)(C)c1ccc2nc(N)sc2c1`: above 10 mg/kg; for `CN(CCn1c(=N)sc2cc(OC(F)(F)F)ccc21)Cc1ccccc1`: 7 mg/kg; for `Nc1ccc2nc(N)sc2c1`: above 10 mg/kg. Turning to `CS(=O)(=O)CCn1c(=N)sc2cc(OC(F)(F)F)ccc21`, the ED50 in the experiment on Mus musculus [2] stood at 2.5 mg/kg; in the experiment on Rattus norvegicus, 1.8 mg/kg.

As for `CN(C)S(=O)(=O)CCn1c(=N)sc2cc(OC(F)(F)F)ccc21`, the ED50 in the experiment on Rattus norvegicus was above 10 mg/kg.

`N=c1sc2cc(OC(F)(F)F)ccc2n1CCSc1ccccc1` had an ED50 in the experiment on Rattus norvegicus of 4.5 mg/kg. `C[S+]([O-])Cn1c(=N)sc2cc(OC(F)(F)F)ccc21` (configuration not stated): the ED50 with Rattus norvegicus came to 2.3 mg/kg. The compound `N#Cc1ccc2nc(N)sc2c1` had an ED50 in the experiment with Rattus norvegicus above 10 mg/kg. With `N=c1sc2cc(OC(F)(F)F)ccc2n1CCS`, in the experiment with Rattus norvegicus, the 50% effect level (ED50) was put at a dose of 2 mg/kg. Consider `C[S+]([O-])CCn1c(=N)sc2cc(OC(F)(F)F)ccc21` (configuration not stated), for which the ED50 in the experiment on Mus musculus [1] was determined as 5.5 mg/kg; with Rattus norvegicus, 1.1 mg/kg. The compound `CC(C)(C)Oc1ccc2nc(N)sc2c1` had an ED50 in the experiment on Rattus norvegicus above 10 mg/kg. On the same count and under the same terms, the same measure for `CCSCCn1/c(=N/O)sc2cc(OC(F)(F)F)ccc21`: above 10 mg/kg; for `CS(=O)(=O)c1ccc2nc(N)sc2c1`: above 10 mg/kg; for `CS(=O)(=O)CCCn1c(=N)sc2cc(OC(F)(F)F)ccc21`: 5 mg/kg. Same read-out and setting: the same measure for `N=c1sc2cc(OC(F)(F)F)ccc2n1CCS(N)(=O)=O`: 6 mg/kg. Still for that read-out and setting: next, `Nc1nc2c(OC(F)(F)F)cccc2s1`: above 10 mg/kg; `Nc1nc2ccc(C(F)(F)F)cc2s1`: 2.5 mg/kg.

The compound `N=c1sc2cc(OC(F)(F)F)ccc2n1CC(=O)O` came in with an ED50 with Rattus norvegicus above 10 mg/kg. Turning to `COC(=O)Cn1c(=N)sc2cc(OC(F)(F)F)ccc21`, the ED50 with Rattus norvegicus is above 10 mg/kg. The same measure, in the same setting: the same measure for `Nc1nc2cc(OC(F)(F)F)ccc2s1`: above 10 mg/kg. With `CSCCn1c(=N)sc2cc(OC(F)(F)F)ccc21`, the ED50 in the experiment on Mus musculus [1] is 14 mg/kg; in the experiment with Rattus norvegicus, 1 mg/kg. On to `N=c1sc2cc(OC(F)(F)F)ccc2n1CC(N)=O`, for which the ED50 in the experiment with Rattus norvegicus was determined as 7 mg/kg. For `CN(C)CCn1c(=N)sc2cc(OC(F)(F)F)ccc21`, the 50% effective dose (ED50) with Mus musculus [1] was found to be 4 mg/kg; with Rattus norvegicus, 2.3 mg/kg. In the experiment with Rattus norvegicus, `CCCc1ccc2nc(N)sc2c1` returned an ED50 of 6 mg/kg.

In turn, `CSCCn1/c(=N/C(C)=O)sc2cc(OC(F)(F)F)ccc21` showed an ED50 in the experiment on Rattus norvegicus above 10 mg/kg. On the same count and under the same terms, the same measure for `CCCCCc1ccc2nc(N)sc2c1`: 7.5 mg/kg; for `CCCCc1ccc2nc(N)sc2c1`: 4 mg/kg. The same measure, in the same setting: next, `CC[S+]([O-])CCn1c(=N)sc2cc(OC(F)(F)F)ccc21` (configuration not stated): 1.2 mg/kg; `CSCCCn1c(=N)sc2cc(OC(F)(F)F)ccc21`: 4.2 mg/kg; `CNCCn1c(=N)sc2cc(OC(F)(F)F)ccc21`: above 10 mg/kg. The compound `CC(C)(C)Cc1ccc2nc(N)sc2c1` displayed an ED50 in the experiment on Rattus norvegicus above 10 mg/kg. Take `Nc1nc2ccc(C3CCCCC3)cc2s1`: the ED50 with Rattus norvegicus was above 10 mg/kg. `N=c1sc2cc(OC(F)(F)F)ccc2n1CCN1CCCCC1`: the ED50 was below 5 mg/kg in the experiment on Mus musculus [1] and 2 mg/kg in the experiment on Rattus norvegicus. For `N=c1sc2cc(OC(F)(F)F)ccc2n1CCN1CC=C(c2ccccc2)CC1`, the values for the ED50 in the experiment with Mus musculus [2] and with Rattus norvegicus were 2.5 mg/kg and 2.2 mg/kg, respectively. Regarding `CCSCCn1c(=N)sc2cc(OC(F)(F)F)ccc21`, the 50% effect level with Rattus norvegicus (ED50) was put at a dose of 2.2 mg/kg. Still for that read-out and setting: the same measure for `CCCCn1c(=N)sc2cc(OC(F)(F)F)ccc21`: 10 mg/kg. Regarding `Nc1nc2ccc(SC(F)(F)F)cc2s1`, the ED50 with Rattus norvegicus came out at 8 mg/kg. Compound `Nc1nc2ccc(OC(F)(F)C(F)(F)F)cc2s1` displayed an ED50 in the experiment with Rattus norvegicus of 2.5 mg/kg. The compound `Nc1nc2ccc(I)cc2s1` returned an ED50 in the experiment with Rattus norvegicus above 10 mg/kg. `CCS(=O)(=O)CCn1c(=N)sc2cc(OC(F)(F)C(F)(F)F)ccc21` displayed an ED50 in the experiment with Rattus norvegicus of 2.6 mg/kg. Same read-out and setting: next, `CCCn1c(=N)sc2cc(OC(F)(F)F)ccc21`: 4.5 mg/kg; `CCn1c(=N)sc2cc(OC(F)(F)F)ccc21`: 5 mg/kg; `CC[S+]([O-])CCn1c(=N)sc2cc(C(F)(F)F)ccc21` (configuration not stated): 1.7 mg/kg. The same measure, in the same setting: next, `CCOC(=O)c1ccc2nc(N)sc2c1`: above 10 mg/kg; `Nc1nc2ccc(CC(F)(F)F)cc2s1`: 8 mg/kg; `C=CCn1c(=N)sc2cc(OC(F)(F)F)ccc21`: 7 mg/kg. `Nc1nc2ccc(C(F)(F)C(F)(F)F)cc2s1` came in with an ED50 in the experiment on Rattus norvegicus of 2.5 mg/kg.

In the experiment with Rattus norvegicus, `C[Si](C)(C)c1ccc2nc(N)sc2c1` yielded an ED50 of 5 mg/kg. On the same count and under the same terms, next, `CC[S+]([O-])CCn1c(=N)sc2cc(C(C)(C)C)ccc21` (configuration not stated): above 10 mg/kg; `CCSCCn1/c(=N/OC)sc2cc(OC(F)(F)F)ccc21`: above 10 mg/kg. As to `N=c1sc2cc(OC(F)(F)F)ccc2n1CCN1CCC(c2ccccc2)CC1`, the figures for the ED50 with Mus musculus [2] and with Rattus norvegicus were 2.5 mg/kg and 3 mg/kg, respectively. `CN(C)CCn1c(=N)sc2cc(C(C)(C)C)ccc21`: the ED50 with Rattus norvegicus was above 10 mg/kg.

In the experiment on Rattus norvegicus, `CNS(=O)(=O)CCn1c(=N)sc2cc(OC(F)(F)F)ccc21` registered an ED50 of 4 mg/kg. As to `Nc1nc2ccc(-c3ccccc3)cc2s1`, the ED50 with Rattus norvegicus was above 10 mg/kg. Same read-out and setting: the same measure for `CSCCn1c(=O)sc2cc(OC(F)(F)F)ccc21`: above 10 mg/kg. On the same count and under the same terms, the same measure for `CC(C)c1ccc2nc(N)sc2c1`: above 10 mg/kg; for `CSCn1c(=N)sc2cc(OC(F)(F)F)ccc21`: 3 mg/kg. For the compound `Nc1nc2ccc(OCC(F)(F)F)cc2s1`, the ED50 in the experiment on Rattus norvegicus worked out at 6.5 mg/kg. `CCCCCCc1ccc2nc(N)sc2c1`: in the experiment on Rattus norvegicus, the ED50 turned out to be 7 mg/kg. The same measure, in the same setting: next, `Nc1nc2ccc(OC(F)F)cc2s1`: 7.5 mg/kg. `C#CCn1c(=N)sc2cc(OC(F)(F)F)ccc21`: the ED50 in the experiment on Rattus norvegicus came out at 4 mg/kg. Same read-out and setting: next, `Nc1nc2ccc(C(=O)C(F)(F)F)cc2s1`: above 10 mg/kg; `CCCCCCCc1ccc2nc(N)sc2c1`: above 10 mg/kg; `CCN(CC)C(=O)Cn1c(=N)sc2cc(OC(F)(F)F)ccc21`: 9 mg/kg. In turn, `N=c1sc2cc(OC(F)(F)F)ccc2n1CCS(=O)(=O)O` displayed an ED50 in the experiment on Rattus norvegicus above 10 mg/kg. On the same count and under the same terms, next, `COc1ccc2nc(N)sc2c1`: above 10 mg/kg; `CN(C)CCn1c(=N)sc2ccccc21`: above 10 mg/kg.

`CC(C)(C)c1ccc2nc(N)sc2c1` showed an ED50 with Rattus norvegicus of 4 mg/kg. `Nc1nc2ccc(Br)cc2s1` gave an ED50 with Rattus norvegicus above 10 mg/kg. For the compound `CC/N=c1\sc2cc(OC(F)(F)F)ccc2n1CCSC`, the 50% effect level with Rattus norvegicus (ED50) was put at a dose of 8.5 mg/kg. In the experiment on Rattus norvegicus, `CN(C)CCCn1c(=N)sc2cc(OC(F)(F)F)ccc21` displayed an ED50 of 9 mg/kg. With `CCS(=O)(=O)CCn1c(=N)sc2cc(C(F)(F)C(F)(F)F)ccc21`, the ED50 with Rattus norvegicus amounted to 2.1 mg/kg. `C[C@]12N[C@H](Cc3ccccc31)c1ccccc12` (racemic) [DIZOCILPINE] gave an ED50 in the experiment on Rattus norvegicus of 2.2 mg/kg. On to `Nc1nc2ccc(OC(F)(F)F)cc2s1` [RILUZOLE], for which the ED50 in the experiment with Mus musculus [1] amounted to 4 mg/kg; in the experiment with Rattus norvegicus, 3.2 mg/kg.
